Data reported in PubChem BioAssay (NCI).
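GI50 marks 50% less growth. TGI denotes the concentration required for complete inhibition of growth.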

Tests used:
Experiment in all cases: NCI-60 cell line screen, 384-well format; in the data active = GI50 below about 0.43 µM; inactive = the rest
786-0 renal = test system: 786-0 renal
A498 renal = test system: A498 renal
A549 NSCLC = test system: A549 NSCLC
ACHN renal = test system: ACHN renal
BT-549 breast = test system: BT-549 breast
CAKI-1 renal = test system: CAKI-1 renal
CCRF-CEM leukemia = test system: CCRF-CEM leukemia
COLO 205 colon = test system: COLO 205 colon
DU-145 prostate = test system: DU-145 prostate
EKVX NSCLC = test system: EKVX NSCLC
HCC-2998 colon = test system: HCC-2998 colon
HCT-116 colon = test system: HCT-116 colon
HCT-15 colon = test system: HCT-15 colon
HL-60(TB) leukemia = test system: HL-60(TB) leukemia
HOP-62 NSCLC = test system: HOP-62 NSCLC
HOP-92 NSCLC = test system: HOP-92 NSCLC
HS 578T breast = test system: HS 578T breast
HT29 colon = test system: HT29 colon
IGROV1 ovarian = test system: IGROV1 ovarian
K-562 leukemia = test system: K-562 leukemia
KM12 colon = test system: KM12 colon
LOX IMVI melanoma = test system: LOX IMVI melanoma
M14 melanoma = test system: M14 melanoma
MALME-3M melanoma = test system: MALME-3M melanoma
MCF7 breast = test system: MCF7 breast
MDA-MB-231 breast = test system: MDA-MB-231 breast
MDA-MB-435 melanoma = test system: MDA-MB-435 melanoma
MDA-MB-468 breast = test system: MDA-MB-468 breast
MOLT-4 leukemia = test system: MOLT-4 leukemia
NCI-H226 lung = test system: NCI-H226 lung
NCI-H23 lung = test system: NCI-H23 lung
NCI-H322M lung = test system: NCI-H322M lung
NCI-H460 NSCLC = test system: NCI-H460 NSCLC
NCI-H522 lung = test system: NCI-H522 lung
NCI/ADR-RES ovarian = test system: NCI/ADR-RES ovarian
OVCAR-3 ovarian = test system: OVCAR-3 ovarian
OVCAR-4 ovarian = test system: OVCAR-4 ovarian
OVCAR-5 ovarian = test system: OVCAR-5 ovarian
OVCAR-8 ovarian = test system: OVCAR-8 ovarian
PC-3 prostate = test system: PC-3 prostate
RPMI-8226 leukemia = test system: RPMI-8226 leukemia
RXF 393 renal = test system: RXF 393 renal
SF-268 CNS = test system: SF-268 CNS
SF-295 CNS = test system: SF-295 CNS
SF-539 CNS = test system: SF-539 CNS
SK-MEL-2 melanoma = test system: SK-MEL-2 melanoma
SK-MEL-28 melanoma = test system: SK-MEL-28 melanoma
SK-MEL-5 melanoma = test system: SK-MEL-5 melanoma
SK-OV-3 ovarian = test system: SK-OV-3 ovarian
SN12C renal = test system: SN12C renal
SNB-19 CNS = test system: SNB-19 CNS
SNB-75 CNS = test system: SNB-75 CNS
SW-620 colon = test system: SW-620 colon
T-47D breast = test system: T-47D breast
TK-10 renal = test system: TK-10 renal
U251 glioblastoma = test system: U251 glioblastoma
UACC-257 melanoma = test system: UACC-257 melanoma
UACC-62 melanoma = test system: UACC-62 melanoma
UO-31 renal = test system: UO-31 renal

CC(C)NC[C@@H](C(=O)N1CCN(c2ncnc3c2[C@H](C)C[C@H]3O)CC1)c1ccc(Cl)cc1
21.6 µM: TGI (MALME-3M melanoma)
inactive: GI50 ([…]-0 renal) 1.49 µM | GI50 (A498 renal) 0.589 µM | GI50 (A549 NSCLC) 18.2 µM | GI50 (ACHN renal) 25.1 µM | GI50 (BT-549 breast) 0.636 µM | GI50 (CAKI-1 renal) 11.7 µM | GI50 (CCRF-CEM leukemia) 0.854 µM | GI50 (COLO 205 colon) 4.88 µM | GI50 (DU-145 prostate) 25.8 µM | GI50 (EKVX NSCLC) 10.6 µM | GI50 (HCC-2998 colon) 3.41 µM | GI50 (HCT-116 colon) 18.2 µM | GI50 (HCT-15 colon) 26.2 µM | GI50 (HL-60(TB) leukemia) 17.3 µM | GI50 (HOP-62 NSCLC) 34.1 µM | GI50 (HOP-92 NSCLC) 11.7 µM | GI50 (HS 578T breast) 0.771 µM | GI50 (HT29 colon) 15.1 µM | GI50 (K-562 leukemia) 25.4 µM | GI50 (KM12 colon) 1.45 µM | GI50 (LOX IMVI melanoma) 34.5 µM | GI50 (M14 melanoma) 14.4 µM | GI50 (MALME-3M melanoma) 7.94 µM | GI50 (MCF7 breast) 0.919 µM | GI50 (MDA-MB-231 breast) 44.9 µM | GI50 (MDA-MB-435 melanoma) 23.9 µM | GI50 (MDA-MB-468 breast) 0.494 µM | GI50 (NCI-H226 lung) 21.2 µM | GI50 (NCI-H23 lung) 16.2 µM | GI50 (NCI-H322M lung) 18.4 µM | GI50 (NCI-H460 NSCLC) 1.31 µM | GI50 (NCI-H522 lung) 17 µM | GI50 (NCI/ADR-RES ovarian) > 100 µM | GI50 (OVCAR-3 ovarian) 10.5 µM | GI50 (OVCAR-4 ovarian) 76.8 µM | GI50 (OVCAR-5 ovarian) 18.4 µM | GI50 (OVCAR-8 ovarian) 45.9 µM | GI50 (PC-3 prostate) 1.07 µM | GI50 (RPMI-8226 leukemia) 10.5 µM | GI50 (SF-268 CNS) 29.6 µM | GI50 (SF-295 CNS) 2.19 µM | GI50 (SF-539 CNS) 0.587 µM | GI50 (SK-MEL-2 melanoma) 11.2 µM | GI50 (SK-MEL-28 melanoma) 11.4 µM | GI50 (SK-MEL-5 melanoma) 12 µM | GI50 (SK-OV-3 ovarian) 0.912 µM | GI50 (SN12C renal) 23.8 µM | GI50 (SNB-19 CNS) 7.47 µM | GI50 (SNB-75 CNS) 0.676 µM | GI50 (SW-620 colon) 49.9 µM | GI50 (TK-10 renal) 5.49 µM | GI50 (U251 glioblastoma) 10.2 µM | GI50 (UACC-257 melanoma) 14 µM | GI50 (UACC-62 melanoma) 10.9 µM | GI50 (UO-31 renal) 35 µM
11.8 µM: TGI (BT-549 breast)
14.6 µM: TGI (HS 578T breast)
active: GI50 (IGROV1 ovarian) 0.235 µM | GI50 (MOLT-4 leukemia) 0.259 µM | GI50 (RXF 393 renal) 0.3 µM | GI50 (T-47D breast) 0.119 µM
23.6 µM: TGI (SK-OV-3 ovarian)
15.5 µM: TGI (MCF7 breast)
36.9 µM: TGI (TK-10 renal)
35.4 µM: TGI (PC-3 prostate)
52.5 µM: TGI (HT29 colon)
34 µM: TGI (M14 melanoma)
49.3 µM: TGI (NCI-H522 lung)
22.5 µM: TGI (SF-539 CNS)
4.16 µM: TGI (MDA-MB-468 breast)
25.2 µM: TGI (SK-MEL-5 melanoma)
96.8 µM: TGI (HCT-116 colon)
2.69 µM: TGI (IGROV1 ovarian)
21 µM: TGI (786-0 renal)
1.77 µM: TGI (MOLT-4 leukemia)
12 µM: TGI (CCRF-CEM leukemia)
41.7 µM: TGI (SK-MEL-28 melanoma)
15.3 µM: TGI (SNB-75 CNS)
> 100 µM: TGI (A549 NSCLC) | TGI (ACHN renal) | TGI (DU-145 prostate) | TGI (HCT-15 colon) | TGI (HOP-62 NSCLC) | TGI (K-562 leukemia) | TGI (LOX IMVI melanoma) | TGI (MDA-MB-231 breast) | TGI (MDA-MB-435 melanoma) | TGI (NCI-H226 lung) | TGI (NCI-H322M lung) | TGI (NCI-H460 NSCLC) | TGI (NCI/ADR-RES ovarian) | TGI (OVCAR-4 ovarian) | TGI (OVCAR-5 ovarian) | TGI (OVCAR-8 ovarian) | TGI (SF-268 CNS) | TGI (SN12C renal) | TGI (SNB-19 CNS) | TGI (SW-620 colon) | TGI (U251 glioblastoma) | TGI (UO-31 renal)
46.1 µM: TGI (HOP-92 NSCLC)
18.8 µM: TGI (KM12 colon)
0.857 µM: TGI (T-47D breast)
24.1 µM: TGI (HCC-2998 colon)
4.41 µM: TGI (RXF 393 renal)
32.7 µM: TGI (SF-295 CNS)
27.1 µM: TGI (UACC-257 melanoma)
30.4 µM: TGI (UACC-62 melanoma)
24.5 µM: TGI (COLO 205 colon) | TGI (SK-MEL-2 melanoma)
11.3 µM: TGI (A498 renal)
52.4 µM: TGI (EKVX NSCLC)
75.5 µM: TGI (CAKI-1 renal)
31.2 µM: TGI (HL-60(TB) leukemia)
64.5 µM: TGI (OVCAR-3 ovarian)
23.9 µM: TGI (RPMI-8226 leukemia)
57.1 µM: TGI (NCI-H23 lung)
